{
  "source": "patent US20060125896A1",
  "about": "“Ink tank, ink jet recording method, and ink tank regeneration process” (Canon Kabushiki Kaisha, priority 2004, published 2006)",
  "test": "Solubility in pure water with pH 7 at 25° C.",
  "type": "physicochemical",
  "details": "pH 7, 25° C., compared with the coloring material",
  "description": "In order to inspect depositing quality due to the influence of pH, the solubility in pure water with pH7 at 25° C. has been compared between the compound represented by the general formula (I) or a salt thereof and the compound represented by the general formula (II) to find that the compound represented by the general formula (II) has a lower solubility than the compound represented by the general formula (I) or a salt thereof. This fact also has supported that the compound represented by the general formula (II) has a high depositing quality.",
  "data": [
    {"smiles": "O=C([O-])c1ccccc1Nc1nc(O)nc(Nc2ccccc2C(=O)[O-])n1.[Na+].[Na+]", "note": "[Exemplified Compound B]", "values": [
      {"measurement": "solubility in pure water", "value": "lower than the solubility of Exemplified Compound A"}
    ]}
  ]
}
